Data from article PMC6932632 (Biochemistry, 2019).

Target: T1, p38γ (Homo sapiens, UniProt P53778)
T1 sequence (P53778 1-367): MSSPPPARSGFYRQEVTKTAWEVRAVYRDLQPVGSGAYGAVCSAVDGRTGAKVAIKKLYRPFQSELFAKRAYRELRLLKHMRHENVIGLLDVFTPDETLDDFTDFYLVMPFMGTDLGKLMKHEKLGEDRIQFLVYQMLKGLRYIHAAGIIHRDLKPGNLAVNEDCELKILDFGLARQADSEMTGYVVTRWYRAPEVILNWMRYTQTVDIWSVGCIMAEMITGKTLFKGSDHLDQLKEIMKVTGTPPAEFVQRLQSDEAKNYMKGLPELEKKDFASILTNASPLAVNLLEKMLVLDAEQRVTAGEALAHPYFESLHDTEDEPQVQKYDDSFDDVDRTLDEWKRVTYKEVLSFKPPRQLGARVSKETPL
Assay: NMR titration
Type: binding

Nc1ncnc2c1ncn2[C@@H]1O[C@H](COP(=O)(O)OP(=O)(O)OP(=O)(O)O)[C@@H](O)[C@H]1O [ATP]
Kd: 770 µM
